Values after ≈ are worked out from the molar mass of the structure shown.
Assays:
[1] = test system: E. coli carrying pAmpC21B (mutant ampC); test: MIC test, mutant plasmid pAmpC21B; format: cell-based; conditions: for clinical resistance conferred by pAmpC21B: after two cycles of mutagenesis and selection
Method: (§1) Serial dilutions were prepared by first determining the volume of drug solution to be added to the first well in each row to achieve the desired concentration of drug in a total volume of 1 ml. The MIC was determined for the following drugs: ampicillin, pipericillin, temocillin, cephalothin, cefuroxime, cefotaxime, ceftazidime, cefepime, imipenem, meropenem, and aztreonam. To the first well in each row 1 ml of the diluted cell suspension was added, and to all remaining wells per row 0.5 ml of the diluted cell suspension was added. For each row, the predetermined volume of a drug solution was added to the first well per row, mixed well, and then 0.5 ml of the mixed solution was transferred to the next well, and so on until the serial dilutions were completed. From the last well in each row, 0.5 ml was removed so that all well contained 0.5 ml of the drug-containing culture. Plates were sealed with BreatheEasy film (Diversified Biotech, Boston, Mass.) and maintained overnight at 37° C. with shaking.
(§2) Plasmids were prepared from those isolates and were transformed into E. coli strain JM109.

[2] = test system: E. coli JM109 carrying the plasmid vector pACSE without an ampC gene; test: MIC test, plasmid vector pACSE without an ampC gene; format: cell-based; conditions: pACSE (vector, no ampC)
Method: (§3) Basically, a MIC determination is carried out by preparing serial dilutions of drugs in a micro-well plate and measuring host cell growth within those wells. The MIC for a particular set of host cells containing a mutant resistance gene is determined by examining the wells to locate the lowest concentration of drug which inhibited cell growth. This is capable of discriminating generally between those host cells containing mutant resistance genes conferring different degrees of resistance against the particular drug.
as §1, with “shaking. […] The MICs, in μg/ml, for each of the above-identified drugs was as follows: ampicillin, >1024; pipericillin, >1024; temocillin, 32: cephalothin, 1024; cefuroxime, 512; cefotaxime, 8; ceftazidime, 64; cefepime, 1; imipenem, 0.25; meropenem, 0.03125; and aztreonam, 16.” for “shaking.”
Plasmids were prepared from those isolates and were transformed into E. coli strain JM109. MICs conferred by each of those plasmids was determined as in Example 5.
(§4) MICs of three of the plasmids containing the wildtype AmpC gene into which the above mutations have been introduced have been determined, as shown in Table 2 below.

[3] = test system: host cells carrying PAmpC0-307 (AmpC L290 to R); test: MIC test, single-mutation plasmid PAmpC0-307; format: cell-based, E. coli; conditions: for MIC: PAmpC0-307, T869 to G, L290 to R
Method: as §3
as §1, with “shaking. […] The MICs, in μg/ml, for each of the above-identified drugs was as follows: ampicillin, >1024; pipericillin, >1024; temocillin, 32: cephalothin, 1024; cefuroxime, 512; cefotaxime, 8; ceftazidime, 64; cefepime, 1; imipenem, 0.25; meropenem, 0.03125; and aztreonam, 16.” for “shaking.”
(§5) To determine the phenotypic effects of each of the amino acid substitutions, the A907C, A587G, A663G, T869G, and A884G mutations are being individually introduced into pAmpC0 by site-directed mutagenesis. It is expected that the A907C mutation will result in MICs that are identical to pAmpC13A. The A587G, A663G, and As84G mutations will also be introduced individually into AmpC13 to determine whether the combination of any of those mutations with A907C will result in increased resistance levels.
as §4

[4] = test system: E. coli carrying pAmpC13A (mutant ampC, S303R); test: MIC test, mutant plasmid pAmpC13A; format: cell-based
Method: as §1, §2

[5] = test system: host cells carrying PAmpC0-308 (AmpC N295 to S); test: MIC test, single-mutation plasmid PAmpC0-308; format: cell-based, E. coli; conditions: A644 to G
[6] = test system: host cells carrying pAmpC0-305 (AmpC T121 to S); test: MIC test, single-mutation plasmid pAmpC0-305; format: cell-based, E. coli; conditions: for MIC: pAmpC0-305, A663 to G, T121 to S
Method: as §3
as §1, with “shaking. […] The MICs, in μg/ml, for each of the above-identified drugs was as follows: ampicillin, >1024; pipericillin, >1024; temocillin, 32: cephalothin, 1024; cefuroxime, 512; cefotaxime, 8; ceftazidime, 64; cefepime, 1; imipenem, 0.25; meropenem, 0.03125; and aztreonam, 16.” for “shaking.”
as §5, §4

[7] = test system: E. coli JM109 carrying pAmpC0 (wildtype E. coli K12 ampC gene); test: MIC test, plasmid pAmpC0 (wildtype ampC gene); format: cell-based; conditions: for MIC: pAmpC0 (wildtype ampC); for resistance conferred by plasmid pAmpC0: wildtype ampC gene, Table 1 boxed cells
Method: as §3
All experiments utilizing ampicillin resistance will be directed toward the cloned and regulated ampC gene (or mutant ampC gene) in such a way that the regulation, i.e., the amount of enzyme produced per cell, will be held constant throughout the experiments and all of the “improvement” in resistance will come from improvement in β-lactamase activity.
as §1, with “shaking. […] The MICs, in μg/ml, for each of the above-identified drugs was as follows: ampicillin, >1024; pipericillin, >1024; temocillin, 32: cephalothin, 1024; cefuroxime, 512; cefotaxime, 8; ceftazidime, 64; cefepime, 1; imipenem, 0.25; meropenem, 0.03125; and aztreonam, 16. […]” for “shaking.”

[8] = test system: E. coli DH5α-E containing multiply mutated ampC; test: MIC of population of E. coli host cells containing multiply mutated (DNA-shuffled) ampC; format: cell-based; conditions: Escherichia coli; lowest drug concentration that completely inhibited growth; overnight at 37° C., MH-I broth, 48-well plates, shuffled ampC library in DH5α-E
Method: E. coli host cells prepared according to Example 4 were diluted into 100 ml MuellerHinton-IPTG (MH-T) broth. Duplicate samples of 10^0, 10^1, and 10^2 dilutions were spread onto L(tet) plates to estimate total transformants, and duplicate 10^0 and 10^1 samples were spread onto MH-I(ampicillin) plates to estimate the number of Amp^R transformants. 10 mg ampicillin was added to each culture using 1 ml of a 10 mg/ml ampicillin solution. The culture was allowed to stand overnight at 37° C. without shaking.
Next, the minimum inhibitory concentration of a number of drug was determined. An estimate of viable cells was calculated by assuming that an A600 of 1.0 is equivalent to 1.9×10^8 per ml for DH5α-E cells. A sample of the overnight culture was diluted into 70 ml of MH-I so that the number of cells per ml 10^5 per ml. The resulting suspension was used to determine MIC in 48-well microtiter plates.
as §1, with “shaking. […] The MICs, in μg/ml, for each of the above-identified drugs was as follows: ampicillin, >1024; pipericillin, >1024; temocillin, 32: cephalothin, 1024; cefuroxime, 512; cefotaxime, 8; ceftazidime, 64; cefepime, 1; imipenem, 0.25; meropenem, 0.03125; and aztreonam, 16.” for “shaking.”

[9] = test system: E. coli carrying pAmpC41A (mutant ampC); test: MIC test, mutant plasmid pAmpC41A; format: cell-based
Method: as §1, with “shaking. […]” for “shaking.”
Plasmids were prepared from those isolates and were transformed into E. coli strain JM109. MICs conferred by each of those plasmids was determined as in Example 5. […]

Compound	clinical resistance conferred by pAmpC21B [1]	MIC [2]	MIC [3]	clinical resistance conferred by pAmpC13A [4]	improved resistance conferred by pAmpC13A [4]	MIC [5]	MIC [6]	MIC [7]	resistance conferred by plasmid pAmpC0 [7]	MIC [8]	improvement in resistance ([9]; pAmpC41A, first line)	increase in resistance ([1]; pAmpC21B, second line)	change in resistance by T869G (L290R) mutation vs wildtype pAmpC0 [3]	change in resistance by A663G (T121S) mutation vs wildtype pAmpC0 [6]	improvement in resistance conferred by pAmpC41A ([9]; after subsequent rounds of mutagenesis and selection, relative to pAmpC13A)
CC1(C)S[C@@H]2[C@H](NC(=O)[C@H](N)c3ccccc3)C(=O)N2[C@H]1C(=O)O [Ampicillin, ampicillin]	clinical resistance	2 mg/L (≈ 5.72 µM)	128 mg/L	clinical resistance	improved resistance	64 mg/L (≈ 183 µM)	128 mg/L	128 mg/L (≈ 366 µM)	confers resistance	> 1020 mg/L					
C[C@H]1[C@H](NC(=O)/C(=N\OC(C)(C)C(=O)O)c2csc(N)n2)C(=O)N1S(=O)(=O)O [Aztreonam, aztreonam]		0.5 mg/L (≈ 1.15 µM)	4 mg/L		improved resistance	4 mg/L (≈ 9.19 µM)	4 mg/L	4 mg/L (≈ 9.19 µM)	not	16 mg/L					
CO/N=C(\C(=O)N[C@@H]1C(=O)N2C(C(=O)[O-])=C(C[N+]3(C)CCCC3)CS[C@H]12)c1csc(N)n1 [Cefepime, cefepime]		0.0312 mg/L (≈ 0.065 µM)	0.0625 mg/L		improved resistance	0.0625 mg/L (≈ 0.13 µM)	0.0625 mg/L	0.0625 mg/L (≈ 0.13 µM)	not	1 mg/L	128 fold	2 fold			
CO/N=C(\C(=O)N[C@@H]1C(=O)N2C(C(=O)O)=C(COC(C)=O)CS[C@H]12)c1csc(N)n1 [Cefotaxime, cefotaxime]		0.0625 mg/L (≈ 0.137 µM)	0.5 mg/L		improved resistance	0.5 mg/L (≈ 1.1 µM)	1 mg/L	1 mg/L (≈ 2.2 µM)	not	8 mg/L					
CC(C)(O/N=C(\C(=O)N[C@@H]1C(=O)N2C(C(=O)[O-])=C(C[n+]3ccccc3)CS[C@H]12)c1csc(N)n1)C(=O)O [Ceftazidime, ceftazidime]	clinical resistance	0.5 mg/L (≈ 0.915 µM)	1 mg/L	clinical resistance	improved resistance	2 mg/L (≈ 3.66 µM)	2 mg/L	2 mg/L (≈ 3.66 µM)	not	64 mg/L					
CO/N=C(\C(=O)N[C@@H]1C(=O)N2C(C(=O)O)=C(COC(N)=O)CS[C@H]12)c1ccco1 [Cefuroxime, cefuroxime]	clinical resistance	16 mg/L (≈ 37.7 µM)	32 mg/L	clinical resistance		32 mg/L (≈ 75.4 µM)	32 mg/L	64 mg/L (≈ 151 µM)	confers resistance	512 mg/L					
CC(=O)OCC1=C(C(=O)O)N2C(=O)[C@@H](NC(=O)Cc3cccs3)[C@H]2SC1 [Cephalothin, cephalothin]	clinical resistance	16 mg/L (≈ 40.4 µM)	512 mg/L	clinical resistance		512 mg/L (≈ 1290 µM)	512 mg/L	1020 mg/L (≈ 2580 µM)	confers resistance	1020 mg/L					
C[C@@H](O)[C@H]1C(=O)N2C(C(=O)O)=C(SCCN=CN)C[C@H]12 [Imipenem, imipenem]		0.25 mg/L (≈ 0.835 µM)	0.125 mg/L			0.125 mg/L (≈ 0.418 µM)	0.125 mg/L	0.25 mg/L (≈ 0.835 µM)		0.25 mg/L					
C[C@@H](O)[C@H]1C(=O)N2C(C(=O)O)=C(S[C@@H]3CN[C@H](C(=O)N(C)C)C3)[C@H](C)[C@H]12 [Meropenem, meropenem]		0.00195 mg/L (≈ 0.00509 µM)	0.0312 mg/L		improved resistance	0.0156 mg/L (≈ 0.0407 µM)	0.0156 mg/L		not	0.0312 mg/L			significantly increase resistance	significantly increase resistance	
CCN1CCN(C(=O)N[C@@H](C(=O)N[C@@H]2C(=O)N3[C@@H]2SC(C)(C)[C@@H]3C(=O)O)c2ccccc2)C(=O)C1=O [Pipericillin, pipericillin]	clinical resistance	4 mg/L (≈ 7.73 µM)	16 mg/L	clinical resistance	improved resistance	4 mg/L (≈ 7.73 µM)	16 mg/L	16 mg/L (≈ 30.9 µM)	not						slight improvement in resistance
CO[C@@]1(NC(=O)C(C(=O)O)c2ccsc2)C(=O)N2[C@@H](C(=O)O)C(C)(C)S[C@@H]21 (some centres unmarked) [Temocillin, temocillin]		16 mg/L (≈ 38.6 µM)	8 mg/L	clinical resistance	improved resistance	8 mg/L (≈ 19.3 µM)	16 mg/L	16 mg/L (≈ 38.6 µM)	not	32 mg/L					

Source: patent publication US6720142B1, “Method of determining evolutionary potential of mutant resistance genes and use thereof to screen for drug efficacy” (priority 1999, dated 2004)
